The target of this assay is human NaV 1.7 (Homo sapiens, UniProt Q15858). Description: E-VIPR optical membrane potential assay with electrical stimulation. The class given is cell-based. The note with it: sodium channel inhibition; read-out: Binned Activity Data (IC50). Put shortly:
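Membrane-potential read-out: background-subtracted 460 nm/580 nm ratio during a 9 s current-controlled stimulus, 400 Hz scan. Before stimulation, NaV1.7-HEK cells carried coumarin/oxonol dye and compound (final DMSO 0.625%) for 20–35 min at room temperature; tetracaine 125 μM served as positive control.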
Chain of human NaV 1.7 (Q15858 whole entry): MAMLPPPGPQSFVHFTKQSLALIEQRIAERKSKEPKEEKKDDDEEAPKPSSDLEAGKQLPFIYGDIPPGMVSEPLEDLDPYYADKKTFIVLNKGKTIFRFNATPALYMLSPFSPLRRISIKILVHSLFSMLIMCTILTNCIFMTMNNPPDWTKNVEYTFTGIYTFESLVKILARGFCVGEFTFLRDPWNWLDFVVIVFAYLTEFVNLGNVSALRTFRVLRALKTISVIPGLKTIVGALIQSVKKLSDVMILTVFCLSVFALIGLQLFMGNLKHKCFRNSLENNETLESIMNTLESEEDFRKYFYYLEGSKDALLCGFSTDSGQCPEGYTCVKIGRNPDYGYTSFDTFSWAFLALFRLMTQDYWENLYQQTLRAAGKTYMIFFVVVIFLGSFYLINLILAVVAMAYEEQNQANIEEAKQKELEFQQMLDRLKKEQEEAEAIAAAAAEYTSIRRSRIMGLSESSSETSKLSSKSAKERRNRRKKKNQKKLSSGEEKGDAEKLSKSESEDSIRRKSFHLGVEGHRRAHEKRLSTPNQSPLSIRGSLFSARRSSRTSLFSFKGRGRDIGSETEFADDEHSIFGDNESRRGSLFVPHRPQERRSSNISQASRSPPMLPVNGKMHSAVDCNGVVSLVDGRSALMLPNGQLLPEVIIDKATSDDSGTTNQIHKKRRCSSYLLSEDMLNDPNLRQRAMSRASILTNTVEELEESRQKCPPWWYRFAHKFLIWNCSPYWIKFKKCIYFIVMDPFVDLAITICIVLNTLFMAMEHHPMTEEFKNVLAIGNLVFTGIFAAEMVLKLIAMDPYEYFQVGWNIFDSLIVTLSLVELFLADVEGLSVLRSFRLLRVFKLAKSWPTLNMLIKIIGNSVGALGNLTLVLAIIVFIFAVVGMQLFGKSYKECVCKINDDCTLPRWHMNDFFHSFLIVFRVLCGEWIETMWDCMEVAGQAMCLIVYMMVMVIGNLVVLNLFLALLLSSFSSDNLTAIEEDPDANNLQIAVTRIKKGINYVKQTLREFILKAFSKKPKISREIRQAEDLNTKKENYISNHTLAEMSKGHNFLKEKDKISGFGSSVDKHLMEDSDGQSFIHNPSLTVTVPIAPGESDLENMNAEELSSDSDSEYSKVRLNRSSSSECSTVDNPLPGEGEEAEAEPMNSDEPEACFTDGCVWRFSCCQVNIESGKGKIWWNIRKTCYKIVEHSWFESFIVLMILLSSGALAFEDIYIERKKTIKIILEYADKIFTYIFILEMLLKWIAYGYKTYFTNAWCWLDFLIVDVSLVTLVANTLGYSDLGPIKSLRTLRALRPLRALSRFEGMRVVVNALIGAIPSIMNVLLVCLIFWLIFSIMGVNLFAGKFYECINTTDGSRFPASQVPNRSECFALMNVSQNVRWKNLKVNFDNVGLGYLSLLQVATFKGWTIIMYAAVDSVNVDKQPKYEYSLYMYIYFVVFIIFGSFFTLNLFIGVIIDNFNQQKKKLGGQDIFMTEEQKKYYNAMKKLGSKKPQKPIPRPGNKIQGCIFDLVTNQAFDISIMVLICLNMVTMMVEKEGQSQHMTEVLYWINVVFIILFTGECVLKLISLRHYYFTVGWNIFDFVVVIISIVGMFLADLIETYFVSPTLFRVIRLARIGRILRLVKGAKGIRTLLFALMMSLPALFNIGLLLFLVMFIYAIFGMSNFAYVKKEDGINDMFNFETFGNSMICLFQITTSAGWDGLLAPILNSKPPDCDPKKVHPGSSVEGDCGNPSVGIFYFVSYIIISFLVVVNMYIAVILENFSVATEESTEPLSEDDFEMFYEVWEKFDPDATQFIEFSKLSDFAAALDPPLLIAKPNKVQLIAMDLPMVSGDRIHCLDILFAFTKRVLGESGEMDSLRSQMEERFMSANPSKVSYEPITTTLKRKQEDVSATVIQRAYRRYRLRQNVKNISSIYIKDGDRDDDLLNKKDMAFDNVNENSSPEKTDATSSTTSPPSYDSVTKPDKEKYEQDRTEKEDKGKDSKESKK
`Cc1ccc(C(=O)N2CCC3(CC2)Oc2ccccc2-n2c3ccc2S(C)(=O)=O)cc1Cl` [Compound 793]: the IC50 is no more than 2 µM.

Regarding `O=C(c1ccc(S(=O)(=O)CCO)cc1)N1CCC2(CC1)Oc1ccccc1-n1c(C(F)(F)F)ccc12` [Compound 794], the IC50 was greater than 5 µM.

Turning to `Cc1cc(C(C)(C)O)ccc1C(=O)N1CCC2(CC1)Oc1ccc(F)cc1-c1nn(C)cc12` [Compound 796], the IC50 is no more than 2 µM.

Regarding `Cc1cccc(C(=O)N2CCC3(CC2)Oc2ccccc2-c2c3cnn2C)c1C` [Compound 797], the IC50 was no more than 2 µM.

Regarding `COc1ccc(F)cc1C(=O)N1CCC2(CC1)Oc1cc(Cl)ccc1-n1c(C#N)ccc12` [Compound 799], the IC50 is no more than 2 µM.

Turning to `COc1c(C)cc(C(=O)N2CCC3(CC2)Oc2ccccc2-c2c3cnn2C)cc1C` [Compound 801], the IC50 is no more than 2 µM.

In the case of `CC(C)S(=O)(=O)c1ccc(C(=O)N2CCC3(CC2)Oc2cc(F)ccc2-n2c(C(F)(F)F)ccc23)cc1` [Compound 804], the IC50 was greater than 5 µM.

On to `CCCOc1ccc(C(=O)N2CCC3(CC2)Oc2cccnc2-n2cccc23)cc1C(F)(F)F` [Compound 805], for which the IC50 was no more than 2 µM.

`N#Cc1ccc2n1-c1ccccc1OC21CCN(C(=O)c2ccc(F)cc2Cl)CC1` [Compound 807]: the half-inhibitory concentration (IC50) was greater than 5 µM.

For `CS(=O)(=O)c1ccc(C(=O)N2CCC3(CC2)Oc2cc(Cl)ccc2-n2cccc23)c(Cl)c1` [Compound 808], the IC50 is no more than 2 µM.

`CC(C)(CO)c1ccc(C(=O)N2CCC3(CC2)Oc2ccccc2-n2c(C#N)ccc23)cc1` [Compound 810]: the IC50 is no more than 2 µM.

Take `Cn1ncc2c1-c1ccccc1OC21CCN(C(=O)c2ccc(OC(F)F)cc2)CC1` [Compound 811]: the IC50 is greater than 5 µM.

For `CCCOc1ccc(C(=O)N2CCC3(CC2)Oc2cc(F)ccc2-n2cccc23)cc1OC` [Compound 812], the IC50 was no more than 2 µM.

Consider `Cc1c(C(=O)N2CCC3(CC2)Oc2ccccc2-c2c3cnn2C)cnn1-c1ccc(F)cc1` [Compound 814], for which the concentration for half-maximal inhibition (IC50) was greater than 5 µM.

In the case of `O=C(c1ccc(C(O)C2CC2)cc1)N1CCC2(CC1)Oc1ccccc1-n1c(C(F)(F)F)ccc12` (centres unmarked) [Compound 815], the IC50 is no more than 2 µM.

As to `COC(C)(C)c1ccc(C(=O)N2CCC3(CC2)Oc2ccccc2-n2cccc23)cc1C` [Compound 817], the IC50 is no more than 2 µM.

For `CCCOc1ccc(C(=O)N2CCC3(CC2)Oc2ccccc2-n2c(C)ccc23)cc1C(F)(F)F` [Compound 818], the half-maximal inhibitory concentration (IC50) was no more than 2 µM.

On to `COc1ccc(C(=O)N2CCC3(CC2)Oc2ccccc2-n2c3ccc2S(C)(=O)=O)cc1C(F)(F)F` [Compound 819], for which the IC50 is no more than 2 µM.

Take `COCCOc1ccc(C(=O)N2CCC3(CC2)Oc2ccccc2-n2c(C(C)=O)ccc23)cc1OC` [Compound 820]: the IC50 was no more than 2 µM.

Consider `CCS(=O)(=O)c1ccc(C(=O)N2CCC3(CC2)Oc2ccccc2-c2c3cnn2C)cc1C` [Compound 821], for which the IC50 was no more than 2 µM.

Take `COc1ccc2c(c1)-c1c(cnn1C)C1(CCN(C(=O)c3ccc(OC(C)C)c(C)c3)CC1)O2` [Compound 822]: the IC50 was no more than 2 µM.

Take `Cn1cc2c(n1)-c1ccccc1OC21CCN(C(=O)c2ccc(S(=O)(=O)NC(C)(C)C)cc2)CC1` [Compound 824]: the IC50 is no more than 2 µM.

Regarding `COc1ccc(C(=O)N2CCC3(CC2)Oc2ccccc2-n2c(C#N)ccc23)cc1C(F)(F)F` [Compound 826], the IC50 was no more than 2 µM.

For the compound `Cn1ncc2c1-c1ccccc1OC21CCN(C(=O)c2ccc(OC3CCCC3)cc2)CC1` [Compound 828], the IC50 is no more than 2 µM.

Consider `CC(C)Oc1ccc(C(=O)N2CCC3(CC2)Oc2ccccc2-c2nn(C)cc23)cn1` [Compound 830], for which the IC50 is no more than 2 µM.

On to `COc1cccc(C(=O)N2CCC3(CC2)Oc2ccccc2-c2c3cnn2C)c1OC` [Compound 831], for which the IC50 was no more than 2 µM.

For the compound `COCc1ccc2c(c1)OC1(CCN(C(=O)c3ccc(S(=O)(=O)C(C)C)cc3)CC1)c1ccc(C#N)n1-2` [Compound 832], the IC50 was greater than 5 µM.

For the compound `CCc1ccccc1C(=O)N1CCC2(CC1)Oc1cc(Cl)ccc1-n1cccc12` [Compound 833], the IC50 was no more than 2 µM.

Turning to `Cc1nc(C(=O)N2CCC3(CC2)Oc2ccccc2-c2c3cnn2C)ccc1OC(C)C` [Compound 834], the IC50 is no more than 2 µM.

Regarding `O=C(c1ccc(OCC2CCCO2)c(C(F)(F)F)c1)N1CCC2(CC1)Oc1ccccc1-n1cccc12` (centres unmarked) [Compound 836], the IC50 is no more than 2 µM.

`COc1cc(C(=O)N2CCC3(CC2)Oc2ccccc2-n2cccc23)ccc1O[C@H]1CCOC1` [Compound 837]: the IC50 is no more than 2 µM.

On to `Cc1cc(C(=O)N2CCC3(CC2)Oc2ccccc2-c2c3cnn2C)ccc1OC(F)(F)F` [Compound 838], for which the IC50 lay within 2 to 5 µM.

As to `CCc1ccc(C(=O)N2CCC3(CC2)Oc2ccccc2-n2c(C#N)ccc23)cc1OC` [Compound 839], the IC50 is no more than 2 µM.

`O=C(c1ccc(S(=O)(=O)C2CCOC2)cc1)N1CCC2(CC1)Oc1ccccc1-n1c(C(F)(F)F)ccc12` (centres unmarked) [Compound 840]: the IC50 was no more than 2 µM.

With `Cn1ncc2c1-c1ccccc1OC21CCN(C(=O)c2cccc3c2OCCC3)CC1` [Compound 841], the IC50 is no more than 2 µM.

On to `Cn1ncc2c1-c1ccccc1OC21CCN(C(=O)c2ccc3nc(Cl)sc3c2)CC1` [Compound 842], for which the IC50 is greater than 5 µM.

Consider `Cn1cc2c(n1)-c1ccccc1OC21CCN(C(=O)c2ccc3nc(Cl)sc3c2)CC1` [Compound 843], for which the IC50 was in the range of 2 to 5 µM.

Turning to `CC(C)(C)NS(=O)(=O)c1ccc(C(=O)N2CCC3(CC2)Oc2ccccc2-n2c(C#N)ccc23)cc1` [Compound 844], the IC50 was no more than 2 µM.

For `COc1ccccc1C(=O)N1CCC2(CC1)Oc1cc(F)ccc1-c1c2cnn1C` [Compound 845], the half-maximal inhibitory concentration (IC50) was no more than 2 µM.

As to `O=C(c1ccc(OCCO)cc1)N1CCC2(CC1)Oc1ccccc1-n1c(C(F)(F)F)ccc12` [Compound 846], the IC50 is no more than 2 µM.

Turning to `COc1cc(C(=O)N2CCC3(CC2)Oc2ccccc2-n2cccc23)ccc1OCC(C)(C)OC` [Compound 847], the IC50 is no more than 2 µM.

With `CCc1ccc(C(=O)N2CCC3(CC2)Oc2cc(CO)ccc2-n2cccc23)cc1OC` [Compound 848], the IC50 is no more than 2 µM.

As to `CC(C)(C)c1ccc(C(=O)N2CCC3(CC2)Oc2ccccc2-n2c(C#N)ccc23)cn1` [Compound 849], the IC50 is greater than 5 µM.

With `COc1cc(C(=O)N2CCC3(CC2)Oc2cc(Cl)ccc2-n2cccc23)ccc1OCCS(C)(=O)=O` [Compound 851], the IC50 was no more than 2 µM.

Regarding `Cc1cc2n(c1)-c1ccccc1OC21CCN(C(=O)c2ccc(OC(C)C)c(C)c2)CC1` [Compound 852], the IC50 was no more than 2 µM.

For the compound `COc1c(CO)cccc1C(=O)N1CCC2(CC1)Oc1ccccc1-c1c2cnn1C` [Compound 853], the IC50 was no more than 2 µM.

As to `N#Cc1ccc2n1-c1ccccc1OC21CCN(C(=O)c2ccc(OC3CNC3)cc2)CC1` [Compound 854], the IC50 fell in the range of 2 to 5 µM.

With `COc1cc(C(=O)N2CCC3(CC2)Oc2cc(F)ccc2-n2cccc23)ccc1C(C)(C)C` [Compound 855], the IC50 is no more than 2 µM.

With `Cn1ncc2c1-c1ccccc1OC21CCN(C(=O)c2ccc(O)c(F)c2)CC1` [Compound 856], the IC50 is no more than 2 µM.

In the case of `COc1ccc(C(=O)N2CCC3(CC2)Oc2cc(Cl)ccc2-n2cccc23)cc1C(F)(F)F` [Compound 857], the IC50 is no more than 2 µM.

Turning to `COc1ccc(Cl)cc1C(=O)N1CCC2(CC1)Oc1cc(Cl)ccc1-n1cccc12` [Compound 858], the IC50 is no more than 2 µM.

Consider `CCS(=O)(=O)c1ccc(C(=O)N2CCC3(CC2)Oc2ccccc2-c2c3cnn2C)cc1` [Compound 859], for which the IC50 is 2 to 5 µM.

Turning to `Cn1ncc2c1-c1ccccc1OC21CCN(C(=O)c2cccc3c2CC(C)(C)O3)CC1` [Compound 860], the IC50 was no more than 2 µM.

Turning to `Cn1ncc2c1-c1ccccc1OC21CCN(C(=O)c2ccc3c(ccn3C)c2)CC1` [Compound 861], the IC50 is no more than 2 µM.

Consider `Cn1ncc2c1-c1ccccc1OC21CCN(C(=O)c2cccnc2Oc2ccc(F)cc2)CC1` [Compound 862], for which the IC50 is no more than 2 µM.

For the compound `CCc1ccc(C(=O)N2CCC3(CC2)Oc2cc(C(=O)N(C)C)ccc2-n2cccc23)cc1OC` [Compound 863], the half-inhibitory concentration (IC50) is no more than 2 µM.

For the compound `N#Cc1ccc2n1-c1ccccc1OC21CCN(C(=O)c2ccc(C3(O)COC3)cc2)CC1` [Compound 864], the IC50 was no more than 2 µM.

As for `CCOc1ccc(C(=O)N2CCC3(CC2)Oc2ccccc2-c2c3cnn2C)cc1OC` [Compound 866], the IC50 was no more than 2 µM.

As for `Cn1ncc2c1-c1ccccc1OC21CCN(C(=O)c2cccc3c2cnn3C)CC1` [Compound 867], the IC50 is no more than 2 µM.

Turning to `Cc1cccc(C(=O)N2CCC3(CC2)Oc2ccccc2-c2c3cnn2C)c1O` [Compound 868], the IC50 is 2 to 5 µM.

With `CC(C)(C)S(=O)(=O)c1ccc(C(=O)N2CCC3(CC2)Oc2ccccc2-n2c(C#N)ccc23)cc1` [Compound 869], the IC50 was no more than 2 µM.

Regarding `O=C(c1cccc(Cl)c1)N1CCC2(CC1)Oc1cc(Cl)ccc1-n1cccc12` [Compound 870], the IC50 is no more than 2 µM.

As to `COc1ccc(C(=O)N2CCC3(CC2)Oc2ccccc2-n2c(C(F)(F)F)ccc23)cc1Cl` [Compound 871], the IC50 is no more than 2 µM.

With `COc1ccc(C(=O)N2CCC3(CC2)Oc2ccccc2-n2c(C(F)(F)F)ccc23)nc1C` [Compound 872], the IC50 was no more than 2 µM.

Consider `O=C(c1ccc(S(=O)(=O)CC2CCC2)cn1)N1CCC2(CC1)Oc1ccccc1-n1c(C(F)(F)F)ccc12` [Compound 873], for which the IC50 was no more than 2 µM.

As for `CC(C)CS(=O)(=O)c1ccc(C(=O)N2CCC3(CC2)Oc2ccccc2-n2c(C(F)(F)F)ccc23)nc1` [Compound 874], the IC50 was no more than 2 µM.

Consider `COc1ccc(C(=O)N2CCC3(CC2)Oc2ccccc2-n2c(C(F)(F)F)ccc23)c(F)c1` [Compound 875], for which the IC50 fell in the range of 2 to 5 µM.

Consider `Cc1cc(C(F)F)n2ncc(C(=O)N3CCC4(CC3)Oc3ccccc3-n3c(C(F)(F)F)ccc34)c2n1` [Compound 876], for which the IC50 is no more than 2 µM.

For the origin of these results see patent publication US9365588B2, “Benzoxazines as modulators of ion channels” (Vertex Pharmaceuticals Incorporated, priority 2011, dated 2016).
